Measured values: publication PMC8599855, “Detection of cancer stem cells by EMT-specific biomarker-based peptide ligands” (Scientific Reports, 2021)
Read-outs that look alike come from different tables or passages of the source.

What was measured:
[1] = tested on: SAS-EGFP-Fluc tumor; assay: SAS xenograft mouse model: tumor burden by bioluminescence, CD44 in excised tumors; type: in vivo
Procedure: Frozen tissues sections or cell culture slides were fixed in 4% paraformaldehyde, washed with PBS and permeated with 0.1% Triton X-100 for 5 min before blocking with 20% FBS for 10 min at 37 °C, followed by the incubation with anti-vimentin antibody (cat. MAB3400, Millipore, Bedford, MA, USA) at 4 °C overnight. Sections were washed three times in PBS, each wash lasting 5 min then stained with Cy5-conjugated goat anti- mouse IgG (1:1000, cat. ab6563, Abcam, Cambridge, UK) for 1 h in the dark. All slides were mounted with VECTASHIELD Mounting Medium with DAPI (cat. H-1200, Vector Labs, Burligame, CA, USA) and covered with cover glasses before visualization under a laser-scanning confocal microscope (Zeiss LSM 880, Jena, Germany) with Zen Blue software (ZEISS, Jena, Germany).
All animal procedures were performed in accordance with the Guide for Care and Use of Laboratory Animals and National Yang-Ming University’s IACUC number was 1080110. Immunodeficient male mice (BALB/cAnNCrj-nu/nu, six weeks old, 20 gm) were provided by National Laboratory Animal Center (NLAC), NARLabs, Taiwan. Mice were group-housed (6 animals per cage) in individually ventilated cages (IVC) systems and had unlimited access to food and water. […] For establishment of xenografts, 2 × 10^6 SAS-EGFP-Fluc cells in 100 μL phosphate-buffered saline (PBS) were injected subcutaneously into the animal's right shoulder and 2 × 10^6 SAS-wt cells were injected into the left leg. Growth of the implanted tumors was monitored twice a week and tumor volumes were estimated from caliper measurements according to the following formula: tumor volume = (lengthÍwidth^2) Í0.523. […]
Tumor-bearing mice were anaesthetized with 2% isoflurane and then injected D-luciferin (150 mg/kg body weight diluted in PBS) into the mouse peritoneum. […] The luminescent intensity at tumor sites was analyzed using living image software 3.2 (IVIS 50 Imaging System, Perkin Elmer, Waltham, MA, USA). Bioluminescent signal was recorded as mean photons/s/centimeter^2/steradian (photon/s/cm^2/sr).

[2] = tested on: SAS cells; assay: AlamarBlue cell viability assay; type: cell-based, human; details: for IC50: Homo sapiens, AlamarBlue
Procedure: Figure 3 In vitro induction of EMT and stemness with Unc0642/IR. (a) SAS cells were treated with indicated concentration of Unc0642 and Unc0642 + 2 Gy of radiation for 72 h respectively. Cell viability was assessed by AlamarBlue assay. All data were normalized to cells without treatment. Data are presented as mean ± SD. IC50 was calculated using SigmaPlot12 software. (b) Western blot analysis of CSC and EMT markers in SAS cells treated with different concentration of Unc 0642 (1.25 and 10 µM) and different dose of radiation (2 and 4 Gy) respectively. Internal control: b-actin. Right graph: the quantification of protein expression levels normalized against b-actin levels in each sample. *p < 0.05; **p < 0.01 by Student’s t-test. The blots were cropped from different parts of the same gel. The original blots and all replicates are presented in Supplementary Fig. 4.
SAS-wt, SAS-EGFP-Fluc and SAS-E2-crimson-P2A::ttksr39 cells were seeded in a 96-well cell culture plate at the density of 5x10^3 cells/well overnight and incubated with serial dilutions of Unc0642 (the concentration of Unc0642 was 0.625, 1.25, 2.5, […], 5, 10, 20, 40, 80 μM respectively in culture medium). Plates were then incubated 48 hours at 37 °C under 5% CO2. Relative cell viabilities were determined by a AlamarBlue assay. 10% v/v of AlamarBlue (Serotec, Oxon, UK) was added into each well and the well containing culture medium without cells served as negative controls. Absorbance was measured at 570 nm against a reference wavelength at 600 nm using a microplate reader (Tecan, Infinite 200 pro, Zürich, Switzerland) after incubation for 24 h at 37°C. Results were presented as the percentage of AlamarBlue reduction and were corrected to background values of negative controls. IC50 values were calculated from a log([drug]) versus normalized response curve fit using SigmaPlot12.

For `COc1cc2c(NC3CCN(C(C)C)CC3)nc(N3CCC(F)(F)CC3)nc2cc1OCCCN1CCCC1` [Unc0642], which “Tumor growth (Fluc signal)” value ([1]; Unc0642 2.5 mg/kg i.p. every two days for 3 times, alone, versus DMSO control, day 18) is on record?
The value was “clear delay in tumor growth”.

What about the “Tumor growth (Fluc signal)” value ([1]; Unc0642 2.5 mg/kg i.p. plus 2 Gy IR, every two days for 3 times) of the same compound?
Its value is “no significant reduction was observed in Unc0642 plus IR treated mice until Day 21, but drastically dropped down on day 24”.

What about the “CD44 expression in excised tumors” value ([1]; Unc0642/IR alone or Unc0642 plus IR groups versus control, IF staining) of the same compound?
Its value is “higher CD44 expression”.

What about the “Effect on cell proliferation at the peak dose” value ([2]; 1.25 μM Unc0642, single treatment or combined with IR, SAS cells) of the same compound?
Its value is “could induce cell proliferation”.

What about the IC50 ([2]; SAS cells exposed to Unc0642 alone for 72 h, normalized to untreated cells, SigmaPlot12 fit, read-out: IC50 (50% inhibition concentration), cell viability) of the same compound?
The IC50 was 12.1 µM.

And the IC50 ([2]; SAS cells, Unc0642 combined with 4 Gy of IR, 72 h, read-out: IC50, cell viability, combined with IR)?
Its IC50 is 4.79 µM.
